Results published in patent US7163954B2, “Substituted naphthyl benzothiophene acids” (Wyeth, priority 2003, dated 2007).

Experiments:
[1] = target: T1, recombinant human plasminogen activator inhibitor-1 (PAI-1) (Homo sapiens, UniProt P05121); assay: Primary screen for the PAI-1 inhibition (residual tPA activity, Spectrozyme-tPA chromogenic substrate); assay type: biochemical; conditions: 25 μM test compound; inhibition of Plasminogen Activator Inhibitor-1
T1 construct: purchased Molecular Innovations, Royal Oak, Mich
T1 sequence (P05121 24-402): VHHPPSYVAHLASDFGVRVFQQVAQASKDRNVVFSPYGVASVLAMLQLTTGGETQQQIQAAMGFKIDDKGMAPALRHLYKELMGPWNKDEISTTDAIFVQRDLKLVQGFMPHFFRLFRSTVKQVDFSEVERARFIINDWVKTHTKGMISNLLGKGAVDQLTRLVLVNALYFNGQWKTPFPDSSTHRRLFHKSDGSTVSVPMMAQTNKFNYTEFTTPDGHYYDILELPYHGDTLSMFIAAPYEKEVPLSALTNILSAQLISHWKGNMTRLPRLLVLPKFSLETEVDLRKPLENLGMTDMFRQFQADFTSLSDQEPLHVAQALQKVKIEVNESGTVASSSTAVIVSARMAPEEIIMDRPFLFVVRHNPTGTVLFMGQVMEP
Protocol: Test compounds are dissolved in DMSO at a final concentration of 10 mM, then diluted 100× in physiologic buffer. The inhibitory assay is initiated by the addition of the test compound (1–100 μM final concentration, !maximum DMSO concentration of 0.2%) in a pH 6.6 buffer containing 140 nM recombinant human plasminogen activator inhibitor-1 (PAI-1; Molecular Innovations, Royal Oak, Mich.). Following a 1 hour incubation at room temperature, 70 nM of recombinant human tissue plasminogen activator (tPA) is added, and the combination of the test compound, PAI-1 and tPA is incubated for an additional 30 minutes. Following the second incubation, Spectrozyme-tPA (American Diagnostica, Greenwich, Conn.), a chromogenic substrate for tPA, is added and absorbance read at 405 nm at 0 and 60 minutes. Relative PAI-1 inhibition is equal to the residual tPA activity in the presence of the test compound and PAI-1. Control treatments include the complete inhibition of tPA by PAI-1 at the molar ratio employed (2:1), and the absence of any effect of the test compound on tPA alone.

Structure (SMILES) | inhibition at 25 µM [1] [%] | melting point [°C]
O=C(Cc1ccccc1)c1c(-c2ccc3c(Br)c(OCc4nnn[nH]4)ccc3c2)sc2ccccc12 [Compound 3, 1-{2-[5-Bromo-6-(1H-tetrazol-5-ylmethoxy)-naphthalen-2-yl]-benzo[b]thiophen-3-yl}-2-phenyl-ethanone] | 52 | –
CCCCC(=O)c1c(-c2ccc3c(Br)c(OCC(=O)O)ccc3c2)sc2ccccc12 [Compound 2, [1-Bromo-6-(3-pentanoyl-benzo[b]thiophen-2-yl)-naphthalen-2-yloxy]-acetic acid] | 69 | 164 to 165
CCCCC(=O)c1c(-c2ccc3c(Br)c(OCc4nnn[nH]4)ccc3c2)sc2ccccc12 [Compound 1, 1-{2-[5-Bromo-6-(1H-tetrazol-5-ylmethoxy)-naphthalen-2-yl]-benzo[b]thiophen-3-yl}-pentan-1-one] | 59 | –

Next, values leading:

inhibition at 25 µM [1] [%] | melting point [°C] | Structure (SMILES)
84 | – | CC(C)CC(=O)c1c(-c2ccc3c(Br)c(OCc4nnn[nH]4)ccc3c2)sc2ccccc12 [Compound 5, 1-{2-[5-Bromo-6-(1H-tetrazol-5-ylmethoxy)-naphthalen-2-yl]-benzo[b]thiophen-3-yl}-3-methyl-butan-1-one]
77 | 206 to 207 | CC(C)(C)CC(=O)c1c(-c2ccc3c(Br)c(OCC(=O)O)ccc3c2)sc2ccccc12 [Compound 6, {1-Bromo-6-[3-(3,3-dimethyl-butyryl)-benzo[b]thiophen-2-yl]-naphthalen-2-yloxy}-acetic acid]
54 | 170 to 172 | O=C(O)COc1ccc2cc(-c3sc4ccccc4c3C(=O)Cc3ccccc3)ccc2c1Br [Compound 4, [1-Bromo-6-(3-phenylacetyl-benzo[b]thiophen-2-yl)-naphthalen-2-yloxy]-acetic acid]
